Test results from patent publication US7750003B2, “Compounds-943” (AstraZeneca AB, priority 2006, dated 2010).

tested on: phosphorylation of Serine 473 in Akt in MDA-MB-468 human breast adenocarcinoma cells; test: In vitro phospho-Ser473 Akt assay (Test (c)); type: cell-based; details: Homo sapiens, MDA-MB-468, 2 h, MDA-MB-468 cells, 2 hours incubation; read-out: Test (c): IC50 versus Serine 473 in Akt
Protocol: (c) In Vitro Phospho-Ser473 Akt Assay
This assay determines the ability of test compounds to inhibit phosphorylation of Serine 473 in Akt as assessed using Acumen Explorer technology (Acumen Bioscience Limited), a plate reader that can be used to rapidly quantitate features of images generated by laser-scanning.
A MDA-MB-468 human breast adenocarcinoma cell line (LGC Promochem, Teddington, Middlesex, UK, Catalogue No. HTB-132) was routinely maintained at 37° C. with 5% CO2 up to a confluency of 70-90% in DMEM containing 10% heat-inactivated FCS and 1% L-glutamine.
For the assay, the cells were detached from the culture flask using ‘Accutase’ (Innovative Cell Technologies Inc., San Diego, Calif., USA; Catalogue No. AT104) using standard tissue culture methods and resuspended in media to give 1.7×10^5 cells per mL. Aliquots (90 μl) were seeded into each of the inner 60 wells of a black Packard 96 well plate (PerkinElmer, Boston, Mass., USA; Catalogue No. 6005182) to give a density of 15000 cells per well. Aliquots (90 μl) of culture media were placed in the outer wells to prevent edge effects. The cells were incubated overnight at 37° C. with 5% CO2 to allow them to adhere.
On day 2, the cells were treated with test compounds and incubated for 2 hours at 37° C. with 5% CO2. Test compounds were prepared as 10 mM stock solutions in DMSO and serially diluted as required with growth media to give a range of concentrations that were 10-fold the required final test concentrations. Aliquots (10 μl) of each compound dilution were placed in a well (in triplicate) to give the final required concentrations. As a minimum response control, each plate contained wells having a final concentration of 100 μM LY294002 (Calbiochem, Beeston, UK, Catalogue No. 440202). As a maximum response control, wells contained 1% DMSO instead of test compound. Following incubation, the contents of the plates were fixed by treatment with a 1.6% aqueous formaldehyde solution (Sigma, Poole, Dorset, UK, Catalogue No. F1635) at room temperature for 1 hour.
All subsequent aspiration and wash steps were carried out using a Tecan 96 well plate washer (aspiration speed 10 mm/sec). The fixing solution was removed and the contents of the plates were washed with phosphate-buffered saline (PBS; 50 μl; Gibco, Catalogue No. 10010015). The contents of the plates were treated for 10 minutes at room temperature with an aliquot (50 μl) of a cell permeabilisation buffer consisting of a mixture of PBS and 0.5% Tween-20. The ‘permeabilisation’ buffer was removed and non-specific binding sites were blocked by treatment for 1 hour at room temperature of an aliquot (50 μl) of a blocking buffer consisting of 5% dried skimmed milk [‘Marvel’ (registered trade mark); Premier Beverages, Stafford, GB] in a mixture of PBS and 0.05% Tween-20. The ‘blocking’ buffer was removed and the cells were incubated for 1 hour at room temperature with rabbit anti phospho-Akt (Ser473) antibody solution (50 μl per well; Cell Signalling, Hitchin, Herts, U.K., Catalogue No 9277) that had been diluted 1:500 in ‘blocking’ buffer. Cells were washed three times in a mixture of PBS and 0.05% Tween-20. Subsequently, cells were incubated for 1 hour at room temperature with Alexafluor488 labelled goat anti-rabbit IgG (50 μl per well; Molecular Probes, Invitrogen Limited, Paisley, UK, Catalogue No. A11008) that had been diluted 1:500 in ‘blocking’ buffer. Cells were washed 3 times with a mixture of PBS and 0.05% Tween-20. An aliquot of PBS (50 μl) was added to each well and the plates were sealed with black plate sealers and the fluorescence signal was detected and analysed.
Fluorescence dose response data obtained with each compound were analysed and the degree of inhibition of Serine 473 in Akt was expressed as an IC50 value.

| SMILES | IC50 [nM] |
| --- | --- |
| C[C@H]1COCCN1c1cc(C(C)(C)S(C)(=O)=O)nc(-c2ccc(NC(=O)N(C)C)cc2)n1 [Example 24ba, 1,1-dimethyl-3-[4-[4-[(3S)-3-methylmorpholin-4-yl]-6-(2-methylsulfonylpropan-2-yl)pyrimidin-2-yl]phenyl]urea] | 5100 |
| C[C@H]1COCCN1c1cc(C(C)(C)S(C)(=O)=O)nc(-c2ccc(NC(=O)N3CCOCC3)cc2)n1 [Example 24bb, N-[4-[4-[(3S)-3-methylmorpholin-4-yl]-6-(2-methylsulfonylpropan-2-yl)pyrimidin-2-yl]phenyl]morpholine-4-carboxamide] | 7800 |
| C[C@H]1COCCN1c1cc(C(C)(C)S(C)(=O)=O)nc(-c2ccc(NC(=O)N3CCC(O)CC3)cc2)n1 [Example 24bc, 4-hydroxy-N-[4-[4-[(3S)-3-methylmorpholin-4-yl]-6-(2-methylsulfonylpropan-2-yl)pyrimidin-2-yl]phenyl]piperidine-1-carboxamide] | 690 |
| C[C@H]1COCCN1c1cc(C(C)(C)S(C)(=O)=O)nc(-c2ccc(NC(=O)N3CCCC(O)C3)cc2)n1 (stereo partly drawn) [Example 24bd, 3-hydroxy-N-[4-[4-[(3S)-3-methylmorpholin-4-yl]-6-(2-methylsulfonylpropan-2-yl)pyrimidin-2-yl]phenyl]piperidine-1-carboxamide] | 3200 |
| C[C@H]1COCCN1c1cc(C(C)(C)S(C)(=O)=O)nc(-c2ccc(NC(=O)N3CCC3)cc2)n1 [Example 24be, N-[4-[4-[(3S)-3-methylmorpholin-4-yl]-6-(2-methylsulfonylpropan-2-yl)pyrimidin-2-yl]phenyl]azetidine-1-carboxamide] | 4900 |
| C[C@H]1COCCN1c1cc(C(C)(C)S(C)(=O)=O)nc(-c2ccc(NC(=O)N3CC(O)C3)cc2)n1 [Example 24bf, 3-hydroxy-N-[4-[4-[(3S)-3-methylmorpholin-4-yl]-6-(2-methylsulfonylpropan-2-yl)pyrimidin-2-yl]phenyl]azetidine-1-carboxamide] | 6700 |
| C[C@H]1COCCN1c1cc(C(C)(C)S(C)(=O)=O)nc(-c2ccc(NC(=O)N(C)C3CC3)cc2)n1 [Example 24bg, 1-cyclopropyl-1-methyl-3-[4-[4-[(3S)-3-methylmorpholin-4-yl]-6-(2-methylsulfonylpropan-2-yl)pyrimidin-2-yl]phenyl]urea] | 2400 |
| CC(=O)NCCS(=O)(=O)Cc1cc(N2CCOC[C@@H]2C)nc(-c2ccc(NC(=O)Nc3ccon3)cc2)n1 [Example 40, N-[2-[[6-[(3S)-3-methylmorpholin-4-yl]-2-[4-(1,2-oxazol-3-ylcarbamoylamino)phenyl]pyrimidin-4-yl]methylsulfonyl]ethyl]acetamide] | 100 |
| C[C@H]1COCCN1c1cc(C(C)(C)O)nc(-c2ccc(NC(=O)Nc3ccon3)cc2)n1 [Example 41, 1-[4-[4-(2-Hydroxypropan-2-yl)-6-[(3S)-3-methylmorpholin-4-yl]pyrimidin-2-yl]phenyl]-3-(1,2-oxazol-3-yl)urea] | 47 |
| C[C@H]1COCCN1c1cc(CS(=O)(=O)c2ccncc2)nc(-c2ccc(NC(=O)NC3CCC3)cc2)n1 [Example 48, 3-Cyclobutyl-1-[4-[4-[(3S)-3-methylmorpholin-4-yl]-6-(pyridin-4-ylsulfonylmethyl)pyrimidin-2-yl]phenyl]urea] | 38 |
| COCc1cc(N2CCOC[C@@H]2C)nc(-c2ccc(NC(=O)NC3CC3)cc2)n1 [Example 54, 3-Cyclopropyl-1-[4-[4-(methoxymethyl)-6-[(3S)-3-methylmorpholin-4-yl]pyrimidin-2-yl]phenyl]urea] | 110 |
| CNC(=O)Nc1ccc(-c2nc(N3CCOC[C@@H]3C)cc(C(C)(C)S(=O)(=O)C3CC3)n2)cc1 [Example 57, 1-[4-[4-(2-Cyclopropylsulfonylpropan-2-yl)-6-[(3S)-3-methylmorpholin-4-yl]pyrimidin-2-yl]phenyl]-3-methyl-urea] | 250 |

Further lines, results first:

| IC50 [nM] | SMILES |
| --- | --- |
| 55 | C[C@H]1COCCN1c1cc(CS(=O)(=O)CCO)nc(-c2ccc(NC(=O)Nc3ccon3)cc2)n1 [Example 40a, 1-[4-[4-(2-hydroxyethylsulfonylmethyl)-6-[(3S)-3-methylmorpholin-4-yl]pyrimidin-2-yl]phenyl]-3-(1,2-oxazol-3-yl)urea] |
| 1900 | Cc1nnc(S(=O)(=O)Cc2cc(N3CCOC[C@@H]3C)nc(-c3ccc(NC(=O)NC4CC4)cc3)n2)s1 [Example 43g, 3-cyclopropyl-1-[4-[4-[(3S)-3-methylmorpholin-4-yl]-6-[(5-methyl-1,3,4-thiadiazol-2-yl)sulfonylmethyl]pyrimidin-2-yl]phenyl]urea] |
| 2900 | C[C@H]1COCCN1c1cc(CS(=O)(=O)C23CC4CC(CC(C4)C2)C3)nc(-c2ccc(NC(=O)NC3CC3)cc2)n1 [Example 43k, 1-[4-[4-(1-adamantylsulfonylmethyl)-6-[(3S)-3-methylmorpholin-4-yl]pyrimidin-2-yl]phenyl]-3-cyclopropyl-urea] |
| 250 | CCNC(=O)Nc1ccc(-c2nc(CS(=O)(=O)c3ccncc3)cc(N3CCOC[C@@H]3C)n2)cc1 [Example 48a, 3-ethyl-1-[4-[4-[(3S)-3-methylmorpholin-4-yl]-6-(pyridin-4-ylsulfonylmethyl)pyrimidin-2-yl]phenyl]urea] |
| 620 | C[C@H]1COCCN1c1cc(CN(C)C)nc(-c2ccc(NC(=O)NC3CC3)cc2)n1 [Example 49d, 3-cyclopropyl-1-[4-[4-(dimethylaminomethyl)-6-[(3S)-3-methylmorpholin-4-yl]pyrimidin-2-yl]phenyl]urea] |
| 130 | C[C@H]1COCCN1c1cc(CN2CCNC(=O)C2)nc(-c2ccc(NC(=O)NC3CC3)cc2)n1 [Example 49j, 3-cyclopropyl-1-[4-[4-[(3S)-3-methylmorpholin-4-yl]-6-[(3-oxopiperazin-1-yl)methyl]pyrimidin-2-yl]phenyl]urea] |
| 3000 | C[C@H]1COCCN1c1cc(CS(=O)(=O)CCO)nc(-c2ccc(NC(=O)NCc3cnn(C)c3)cc2)n1 [Example 53b, 1-[4-[4-(2-hydroxyethylsulfonylmethyl)-6-[(3S)-3-methylmorpholin-4-yl]pyrimidin-2-yl]phenyl]-3-[(1-methylpyrazol-4-yl)methyl]urea] |
| 64 | C[C@H]1COCCN1c1cc(C(C)(C)S(=O)(=O)C2CC2)nc(-c2ccc(NC(=O)NC(C)(C)CO)cc2)n1 [Example 57a, 1-[4-[4-(2-cyclopropylsulfonylpropan-2-yl)-6-[(3S)-3-methylmorpholin-4-yl]pyrimidin-2-yl]phenyl]-3-(1-hydroxy-2-methyl-propan-2-yl)urea] |
| 360 | C[C@H]1COCCN1c1cc(C(C)(C)S(=O)(=O)C2CC2)nc(-c2ccc(NC(=O)Nc3cnn(C)c3)cc2)n1 [Example 57c, 1-[4-[4-(2-cyclopropylsulfonylpropan-2-yl)-6-[(3S)-3-methylmorpholin-4-yl]pyrimidin-2-yl]phenyl]-3-(1-methylpyrazol-4-yl)urea] |
| 840 | CNC(=O)Nc1ccc(-c2nc(CS(=O)(=O)C3CC3)cc(N3CCOC[C@@H]3C)n2)cc1 [Example 57d, 1-[4-[4-(cyclopropylsulfonylmethyl)-6-[(3S)-3-methylmorpholin-4-yl]pyrimidin-2-yl]phenyl]-3-methyl-urea] |
| 380 | C[C@H]1COCCN1c1cc(CS(=O)(=O)C2CC2)nc(-c2ccc(NC(=O)NC(C)(C)CO)cc2)n1 [Example 57e, 1-[4-[4-(cyclopropylsulfonylmethyl)-6-[(3S)-3-methylmorpholin-4-yl]pyrimidin-2-yl]phenyl]-3-(1-hydroxy-2-methyl-propan-2-yl)urea] |
